Source: PMC4178217, “Quinoline 3-sulfonamides inhibit lactate dehydrogenase A and reverse aerobic glycolysis in cancer cells” (Cancer & Metabolism, 2013)
Entries after “also recorded” stand apart in the source; their conditions may differ. Like-named read-outs stand apart in the source and are kept apart here.

Tests used:
Snu398 cells [1] = experiment: Fructose-1,6-bisphosphate (FBP) analysis; type: cell-based, human; details: Snu398, 10 μM, 24 h R10 or 6 h low glucose
Method: Treatment was carried out for 24 h in R10 or for 6 h in low glucose medium. At the end of this treatment, cells were washed, lifted by trypsinization, counted, and cell pellets were submitted for analysis of FBP to Apredica, Inc.

Adrenergic Receptor b2 = Adrenergic Receptor b2 (Homo sapiens, UniProt P07550); experiment: Adrenergic Receptor b2 ANT; details: antagonist; read-out: pIC50 Adrenergic Receptor b2 ANT (converted)
Text: (§1) ANT = antagonist (pIC50), AG = agonist (pEC50). pIC50 and pEC50 are the negative logarithms10 of IC50 and EC50, respectively. Click here for file

[2] = target: Cannabinoid receptor type 2 (Homo sapiens, UniProt P34972); experiment: Cannabinoid receptor type 2 AG; details: agonist; read-out: pEC50 Cannabinoid receptor type 2 AG (converted)
Cannabinoid receptor type 2, sequence (P34972 whole entry): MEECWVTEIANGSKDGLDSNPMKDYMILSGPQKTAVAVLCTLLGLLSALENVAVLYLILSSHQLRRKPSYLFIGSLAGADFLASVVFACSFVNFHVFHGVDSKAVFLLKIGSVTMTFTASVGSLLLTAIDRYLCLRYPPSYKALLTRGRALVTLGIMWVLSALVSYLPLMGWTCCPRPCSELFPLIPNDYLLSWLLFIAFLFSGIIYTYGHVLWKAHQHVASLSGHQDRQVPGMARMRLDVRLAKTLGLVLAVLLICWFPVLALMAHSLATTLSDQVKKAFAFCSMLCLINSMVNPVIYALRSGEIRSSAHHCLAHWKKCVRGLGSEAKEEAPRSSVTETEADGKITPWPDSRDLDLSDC
Text: as §1

Dopamin Receptor D1 = Dopamin Receptor D1 (Homo sapiens, UniProt P21728); experiment: Dopamin Receptor D1 ANT; details: antagonist; read-out: pIC50 Dopamin Receptor D1 ANT (converted)
Dopamin Receptor D1, sequence (P21728 whole entry): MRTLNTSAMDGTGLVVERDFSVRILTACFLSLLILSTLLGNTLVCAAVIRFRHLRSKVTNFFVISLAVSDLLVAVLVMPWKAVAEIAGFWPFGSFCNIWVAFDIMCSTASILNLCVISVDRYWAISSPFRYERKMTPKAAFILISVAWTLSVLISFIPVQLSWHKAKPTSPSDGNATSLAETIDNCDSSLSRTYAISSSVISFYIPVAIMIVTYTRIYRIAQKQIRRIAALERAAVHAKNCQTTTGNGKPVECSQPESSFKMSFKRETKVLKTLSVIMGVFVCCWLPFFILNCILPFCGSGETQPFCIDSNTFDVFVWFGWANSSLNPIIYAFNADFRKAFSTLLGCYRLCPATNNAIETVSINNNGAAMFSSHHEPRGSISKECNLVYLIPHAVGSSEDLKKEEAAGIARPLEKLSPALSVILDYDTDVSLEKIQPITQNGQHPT
Text: as §1

Dopamin Receptor D2 = Dopamin Receptor D2 (Homo sapiens, UniProt P14416); experiment: Dopamin receptor D2 ANT; details: antagonist; read-out: pIC50 Dopamin receptor D2 ANT (converted)
Text: as §1

Muscarinic Receptor M2 = target: T1, Muscarinic Receptor M2 (Homo sapiens, UniProt P08172); experiment: Muscarinic Receptor M2 AG; details: agonist; read-out: pEC50 Muscarinic Receptor M2 AG (converted)
T1 sequence (P08172 1-466): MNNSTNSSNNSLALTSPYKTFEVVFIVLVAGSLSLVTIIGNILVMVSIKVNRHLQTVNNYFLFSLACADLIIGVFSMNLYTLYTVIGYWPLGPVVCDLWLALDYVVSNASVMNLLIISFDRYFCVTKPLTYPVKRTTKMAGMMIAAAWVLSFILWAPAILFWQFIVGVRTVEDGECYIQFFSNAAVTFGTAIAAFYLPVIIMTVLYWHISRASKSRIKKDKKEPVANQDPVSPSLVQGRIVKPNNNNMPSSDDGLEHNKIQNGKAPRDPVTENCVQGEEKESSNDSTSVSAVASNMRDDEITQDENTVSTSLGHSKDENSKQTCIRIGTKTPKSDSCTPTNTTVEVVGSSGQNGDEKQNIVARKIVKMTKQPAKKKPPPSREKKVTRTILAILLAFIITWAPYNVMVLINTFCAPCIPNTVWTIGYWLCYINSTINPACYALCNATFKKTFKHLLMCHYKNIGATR
Text: as §1

[3] = target: Nicotinic Ach Receptor A1 (Homo sapiens, UniProt P02708+P07510+Q07001); experiment: Nicotinic Ach Receptor A1 AG
Nicotinic Ach Receptor A1, sequence (P02708 21-457): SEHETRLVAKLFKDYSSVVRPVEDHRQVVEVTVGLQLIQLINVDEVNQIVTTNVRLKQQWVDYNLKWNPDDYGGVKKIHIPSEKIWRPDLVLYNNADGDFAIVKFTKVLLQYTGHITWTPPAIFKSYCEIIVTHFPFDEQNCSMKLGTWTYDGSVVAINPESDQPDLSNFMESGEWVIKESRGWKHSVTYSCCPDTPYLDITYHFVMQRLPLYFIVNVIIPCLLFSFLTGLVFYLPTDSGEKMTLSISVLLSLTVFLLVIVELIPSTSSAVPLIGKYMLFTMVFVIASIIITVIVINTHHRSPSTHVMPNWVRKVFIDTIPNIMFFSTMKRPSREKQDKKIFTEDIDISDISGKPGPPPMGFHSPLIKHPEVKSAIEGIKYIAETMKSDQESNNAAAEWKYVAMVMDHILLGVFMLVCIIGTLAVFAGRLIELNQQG
Nicotinic Ach Receptor A1, sequence (P11230 24-501 partner): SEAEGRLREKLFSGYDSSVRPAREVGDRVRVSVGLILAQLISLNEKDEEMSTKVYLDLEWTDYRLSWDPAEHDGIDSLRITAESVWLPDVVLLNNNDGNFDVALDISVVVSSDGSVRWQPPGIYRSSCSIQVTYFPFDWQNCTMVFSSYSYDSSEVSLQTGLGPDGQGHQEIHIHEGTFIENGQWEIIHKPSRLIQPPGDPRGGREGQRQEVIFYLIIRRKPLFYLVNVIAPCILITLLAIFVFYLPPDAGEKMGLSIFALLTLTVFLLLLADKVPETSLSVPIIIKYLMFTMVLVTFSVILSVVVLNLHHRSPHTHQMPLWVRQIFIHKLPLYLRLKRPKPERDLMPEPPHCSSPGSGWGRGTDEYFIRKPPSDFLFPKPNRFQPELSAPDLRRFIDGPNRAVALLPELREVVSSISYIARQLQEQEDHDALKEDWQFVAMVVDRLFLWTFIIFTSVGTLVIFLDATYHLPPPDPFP
Nicotinic Ach Receptor A1, sequence (Q07001 22-517): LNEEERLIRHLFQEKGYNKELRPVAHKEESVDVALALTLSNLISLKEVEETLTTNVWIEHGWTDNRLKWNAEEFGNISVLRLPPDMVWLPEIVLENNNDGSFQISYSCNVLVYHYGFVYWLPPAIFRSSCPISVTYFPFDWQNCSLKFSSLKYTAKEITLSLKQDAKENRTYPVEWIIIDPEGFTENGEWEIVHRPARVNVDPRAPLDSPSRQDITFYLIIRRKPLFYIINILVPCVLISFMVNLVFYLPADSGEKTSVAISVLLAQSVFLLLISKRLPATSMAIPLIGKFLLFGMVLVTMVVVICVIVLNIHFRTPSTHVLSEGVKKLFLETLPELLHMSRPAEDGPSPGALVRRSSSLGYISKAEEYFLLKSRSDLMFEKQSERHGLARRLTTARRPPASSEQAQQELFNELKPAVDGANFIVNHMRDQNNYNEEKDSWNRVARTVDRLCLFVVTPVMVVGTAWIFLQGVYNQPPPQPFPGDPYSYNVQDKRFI
Nicotinic Ach Receptor A1, sequence (P07510 23-517): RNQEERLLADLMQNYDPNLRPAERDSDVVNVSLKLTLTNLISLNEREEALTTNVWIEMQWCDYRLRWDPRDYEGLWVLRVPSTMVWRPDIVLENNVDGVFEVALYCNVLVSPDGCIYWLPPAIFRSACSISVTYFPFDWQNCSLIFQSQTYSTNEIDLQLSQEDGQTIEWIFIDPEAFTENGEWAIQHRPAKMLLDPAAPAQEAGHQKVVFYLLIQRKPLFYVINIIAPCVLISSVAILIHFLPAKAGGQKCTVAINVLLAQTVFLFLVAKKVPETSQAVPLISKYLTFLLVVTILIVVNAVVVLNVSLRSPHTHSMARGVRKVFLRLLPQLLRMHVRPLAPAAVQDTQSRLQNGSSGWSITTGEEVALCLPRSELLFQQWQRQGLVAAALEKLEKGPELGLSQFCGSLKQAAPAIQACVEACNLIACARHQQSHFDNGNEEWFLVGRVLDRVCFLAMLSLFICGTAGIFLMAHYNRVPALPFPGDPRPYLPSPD
Text: as §1

Opioid Receptor m = Opioid Receptor m (Homo sapiens, UniProt P35372); experiment: Opioid Receptor m AG; details: agonist; read-out: pEC50 Opioid Receptor m AG (converted)
Text: as §1

Phosphodiesterase 4B = Phosphodiesterase 4B (Homo sapiens, UniProt Q07343); experiment: Phosphodiesterase 4B ANT; type: biochemical; details: antagonist; read-out: pIC50 Phosphodiesterase 4B ANT (converted)
Phosphodiesterase 4B, sequence (Q07343 whole entry): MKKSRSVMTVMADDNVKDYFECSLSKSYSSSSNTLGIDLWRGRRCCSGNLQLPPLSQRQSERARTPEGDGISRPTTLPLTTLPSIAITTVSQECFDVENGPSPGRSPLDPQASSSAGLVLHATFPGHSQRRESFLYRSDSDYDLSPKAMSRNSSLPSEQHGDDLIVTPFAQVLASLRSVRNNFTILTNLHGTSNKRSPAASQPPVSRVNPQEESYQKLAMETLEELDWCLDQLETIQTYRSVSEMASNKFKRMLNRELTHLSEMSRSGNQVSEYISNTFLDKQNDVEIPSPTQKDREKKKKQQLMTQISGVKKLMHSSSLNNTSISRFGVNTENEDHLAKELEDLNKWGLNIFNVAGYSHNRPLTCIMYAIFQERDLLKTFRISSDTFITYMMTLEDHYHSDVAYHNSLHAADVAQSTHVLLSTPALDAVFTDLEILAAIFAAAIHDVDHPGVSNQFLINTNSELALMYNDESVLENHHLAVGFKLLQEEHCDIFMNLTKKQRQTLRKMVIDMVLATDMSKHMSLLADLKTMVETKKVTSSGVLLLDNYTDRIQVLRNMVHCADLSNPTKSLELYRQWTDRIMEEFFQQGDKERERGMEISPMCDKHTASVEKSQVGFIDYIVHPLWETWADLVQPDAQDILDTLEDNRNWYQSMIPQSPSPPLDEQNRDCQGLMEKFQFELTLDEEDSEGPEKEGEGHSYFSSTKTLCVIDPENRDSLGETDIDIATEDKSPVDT
Text: as §1

[4] = target: Phosphoinositide 3-kinase g (Homo sapiens, UniProt P48736); experiment: Phosphoinositide 3-kinase g ANT; type: biochemical; details: antagonist; read-out: pIC50 Phosphoinositide 3-kinase g ANT (converted)
Text: as §1

Potassium Channel Kv1.5 = Potassium Channel Kv1.5 (Homo sapiens, UniProt P22460); experiment: Potassium Channel Kv1.5 ANT; details: antagonist; read-out: pIC50 Potassium Channel Kv1.5 ANT (converted)
Text: as §1

Pregnane X receptor = Pregnane X receptor (Homo sapiens, UniProt O75469); experiment: Pregnane X receptor AG; details: agonist; read-out: pEC50 Pregnane X receptor AG (converted)
Pregnane X receptor, sequence (O75469 whole entry, species assumed): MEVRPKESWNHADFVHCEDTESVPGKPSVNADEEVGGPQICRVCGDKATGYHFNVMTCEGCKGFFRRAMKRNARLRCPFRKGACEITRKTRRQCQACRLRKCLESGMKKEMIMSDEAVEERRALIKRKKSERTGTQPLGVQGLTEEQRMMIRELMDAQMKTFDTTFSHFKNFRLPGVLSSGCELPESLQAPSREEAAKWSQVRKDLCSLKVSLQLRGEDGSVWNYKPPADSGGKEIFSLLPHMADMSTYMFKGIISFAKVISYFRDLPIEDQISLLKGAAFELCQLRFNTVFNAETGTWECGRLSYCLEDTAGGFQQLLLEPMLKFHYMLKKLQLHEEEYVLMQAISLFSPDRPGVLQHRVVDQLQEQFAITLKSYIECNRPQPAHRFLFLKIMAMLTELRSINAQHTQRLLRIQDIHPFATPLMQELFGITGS
Text: as §1

Serotonin Receptor 5HT1B [5] = target: T2, Serotonin Receptor 5HT1B (Homo sapiens, UniProt P28222); experiment: Serotonin Receptor 5HT1B AG; details: agonist; read-out: pEC50 Serotonin Receptor 5HT1B AG (converted)
T2 sequence (P28222 whole entry): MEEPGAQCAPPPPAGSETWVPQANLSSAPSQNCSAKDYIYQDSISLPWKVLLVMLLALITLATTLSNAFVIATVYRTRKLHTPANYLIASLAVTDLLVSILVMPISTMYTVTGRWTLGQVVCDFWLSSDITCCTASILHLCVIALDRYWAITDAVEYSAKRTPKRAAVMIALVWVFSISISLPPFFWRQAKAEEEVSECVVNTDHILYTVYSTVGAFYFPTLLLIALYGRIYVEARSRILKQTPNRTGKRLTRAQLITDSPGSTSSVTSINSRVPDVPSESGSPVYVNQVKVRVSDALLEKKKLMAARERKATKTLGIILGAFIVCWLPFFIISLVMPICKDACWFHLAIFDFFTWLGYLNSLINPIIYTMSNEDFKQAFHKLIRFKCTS
Text: as §1

Serotonin Receptor 5HT1B [6] = target: T2, Serotonin Receptor 5HT1B; experiment: Serotonin Receptor 5HT1B ANT; details: antagonist; read-out: pIC50 Serotonin Receptor 5HT1B ANT (converted)
Text: as §1

Serotonin Receptor 5HT3 = target: T3, Serotonin Receptor 5HT3 (Homo sapiens, UniProt P46098); experiment: Serotonin Receptor 5HT3 AG; details: agonist; read-out: pEC50 Serotonin Receptor 5HT3 AG (converted)
T3 sequence (P46098 24-478): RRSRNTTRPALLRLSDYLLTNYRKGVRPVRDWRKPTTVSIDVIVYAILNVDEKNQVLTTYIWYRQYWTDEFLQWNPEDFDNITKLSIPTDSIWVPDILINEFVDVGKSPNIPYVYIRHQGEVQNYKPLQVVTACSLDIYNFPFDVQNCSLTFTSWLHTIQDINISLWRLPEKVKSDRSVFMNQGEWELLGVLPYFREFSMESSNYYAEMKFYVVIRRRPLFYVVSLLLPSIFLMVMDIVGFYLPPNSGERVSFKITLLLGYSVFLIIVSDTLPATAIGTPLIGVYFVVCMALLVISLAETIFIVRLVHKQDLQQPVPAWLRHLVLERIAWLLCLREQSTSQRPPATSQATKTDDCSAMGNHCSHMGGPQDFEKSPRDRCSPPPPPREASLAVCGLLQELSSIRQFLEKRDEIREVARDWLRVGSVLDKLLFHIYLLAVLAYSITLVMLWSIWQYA
Text: as §1

Serotonin Transporter = Serotonin Transporter (Homo sapiens, UniProt P31645); experiment: Serotonin Transporter ANT; details: antagonist; read-out: pIC50 Serotonin Transporter ANT (converted)
Serotonin Transporter, sequence (P31645 whole entry): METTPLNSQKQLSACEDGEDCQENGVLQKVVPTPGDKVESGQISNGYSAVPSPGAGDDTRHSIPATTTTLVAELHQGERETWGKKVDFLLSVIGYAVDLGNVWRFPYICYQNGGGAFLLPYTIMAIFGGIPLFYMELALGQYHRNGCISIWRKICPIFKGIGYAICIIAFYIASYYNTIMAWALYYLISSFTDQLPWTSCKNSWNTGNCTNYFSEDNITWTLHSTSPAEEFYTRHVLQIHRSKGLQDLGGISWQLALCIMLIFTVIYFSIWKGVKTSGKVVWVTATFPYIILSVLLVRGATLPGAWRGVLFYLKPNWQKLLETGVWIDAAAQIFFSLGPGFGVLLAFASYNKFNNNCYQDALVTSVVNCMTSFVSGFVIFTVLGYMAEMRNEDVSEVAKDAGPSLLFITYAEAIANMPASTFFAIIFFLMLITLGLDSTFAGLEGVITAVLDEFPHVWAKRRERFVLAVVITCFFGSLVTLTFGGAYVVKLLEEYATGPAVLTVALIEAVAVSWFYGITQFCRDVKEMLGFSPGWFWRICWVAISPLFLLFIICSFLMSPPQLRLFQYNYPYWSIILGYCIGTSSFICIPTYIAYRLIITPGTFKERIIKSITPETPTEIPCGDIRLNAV
Text: as §1

Sodium Channel NaV 1.5 = Sodium Channel NaV 1.5 (Homo sapiens, UniProt Q14524); experiment: Sodium Channel NaV 1.5 ANT; details: antagonist; read-out: pIC50 Sodium Channel NaV 1.5 ANT (converted)
Text: as §1

Snu398 cells [7] = experiment: Lactate production assay, Snu398 (RapidFire-MS); details: Homo sapiens, SNU-398, read-out: lactate production EC50

SMILES | intracellular fructose-1,6-bisphosphate (FBP) level (Snu398 cells [1]) | IC50 (Adrenergic Receptor b2) [µM] | EC50 [2] [µM] | IC50 (Dopamin Receptor D1) [µM] | IC50 (Dopamin Receptor D2) [µM] | EC50 (Muscarinic Receptor M2) [µM] | EC50 [3] [µM] | EC50 (Opioid Receptor m) [µM] | IC50 (Phosphodiesterase 4B) [µM] | IC50 [4] [µM] | IC50 (Potassium Channel Kv1.5) [µM] | EC50 (Pregnane X receptor) [µM] | EC50 (Serotonin Receptor 5HT1B [5]) [µM] | IC50 (Serotonin Receptor 5HT1B [6]) [µM] | EC50 (Serotonin Receptor 5HT3) [µM] | IC50 (Serotonin Transporter) [µM] | IC50 (Sodium Channel NaV 1.5) [µM] | EC50 (Snu398 cells [7]) [µM] | EC50 ([3]; agonist, read-out: pEC50 Nicotinic Ach Receptor A1 AG (converted)) [µM]
COc1ncc(-c2ccc3c(Nc4cc(Oc5cc(F)cc(F)c5)cc(C(=O)O)c4)c(S(=O)(=O)NC4CC4)cnc3c2)c(OC)n1 [Compound 1] | increase intracellular levels of fructose-1,6-bisphosphate (FBP); also recorded: Increase in fructose-1,6-bisphosphate (FBP) | 31.6 | 31.6 | 31.6 | 39.8 | 15.8 | 50.1 | 100 | 1.26 | 31.6 | 50.1 | 50.1 | 31.6 | 31.6 | 50.1 | 100 | 100 | 0.4 ± 0.1 | 
COc1ncc(-c2ccc3c(Nc4cc(C(=O)O)cc(C5CCCC5)c4)c(S(=O)(=O)NC4CC4)cnc3c2)c(OC)n1 [Compound 2] | increase intracellular levels of fructose-1,6-bisphosphate (FBP) | 31.6 | 31.6 | 31.6 | 100 | 15.8 |  | 100 | 0.501 | 31.6 | 50.1 | 50.1 | 31.6 | 31.6 | 39.8 | 100 | 39.8 | 0.6 ± 0.2 | 50.1
